According to ChEMBL document CHEMBL3864130, “A novel lead of P-selectin inhibitor: Discovery, synthesis, bioassays and action mechanism” (2016):
Calls of active or inactive are those of the source. The calls are words filed in the database; no cut-off is given here.

What was measured:
Mus musculus [1] = test: Antithrombosis activity in ferric cholride induced ICR mouse model of thrombosis assessed as inhibition of thrombus formation at 240 umol/kg, po measured after 15 mins; type: functional, organism-based
Mus musculus [2] = test: Antiinflammatory activity in xylene induced ICR mouse ear edema model assessed as decrease in ear swelling at 0.11 mmol/kg, po pretreated for 30 mins followed by topical administration of xylene measured after 2 hrs; type: functional, organism-based
Rattus norvegicus [3] = test: Antithrombotic activity in Sprague-Dawley rat model of thrombosis assessed as inhibition of thrombus formation at 167 umol/kg, po measured after 30 mins; type: functional, organism-based
[4] = target: T1, P-selectin (Rattus norvegicus) (UniProt P98106); test: Downregulation of P-selectin expression in arachidonic acid-activated Sprague-Dawley rat platelets assessed as P-selectin levels pretreated with platelets followed by arachidonic acid addition measured after 3 mins by ELISA
T1 sequence (whole entry): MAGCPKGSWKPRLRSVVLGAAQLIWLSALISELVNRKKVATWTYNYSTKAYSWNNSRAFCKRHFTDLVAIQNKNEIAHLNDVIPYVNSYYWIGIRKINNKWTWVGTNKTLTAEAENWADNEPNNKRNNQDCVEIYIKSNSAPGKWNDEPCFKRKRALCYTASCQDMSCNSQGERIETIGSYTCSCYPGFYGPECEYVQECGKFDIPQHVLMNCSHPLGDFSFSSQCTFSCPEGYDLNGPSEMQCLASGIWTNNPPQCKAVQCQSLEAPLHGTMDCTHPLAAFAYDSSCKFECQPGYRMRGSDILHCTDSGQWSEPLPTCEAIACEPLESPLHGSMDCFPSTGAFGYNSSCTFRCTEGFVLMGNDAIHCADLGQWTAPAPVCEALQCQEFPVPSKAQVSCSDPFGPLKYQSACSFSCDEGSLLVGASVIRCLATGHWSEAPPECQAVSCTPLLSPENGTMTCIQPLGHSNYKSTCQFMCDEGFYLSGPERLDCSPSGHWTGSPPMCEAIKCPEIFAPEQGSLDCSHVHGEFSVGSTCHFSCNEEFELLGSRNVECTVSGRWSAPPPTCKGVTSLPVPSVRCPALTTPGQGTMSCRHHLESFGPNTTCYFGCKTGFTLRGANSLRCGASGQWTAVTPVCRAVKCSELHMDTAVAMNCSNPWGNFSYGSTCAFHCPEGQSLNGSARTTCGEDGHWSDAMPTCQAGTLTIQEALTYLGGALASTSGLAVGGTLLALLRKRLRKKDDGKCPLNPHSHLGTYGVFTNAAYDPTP

Mus musculus [5] = test: Antiinflammatory activity in xylene induced ICR mouse ear edema model assessed as decrease in ear swelling pretreated orally for 30 mins followed by topical administration of xylene measured after 2 hrs; type: functional
[6] = target: T1, P-selectin (Rattus norvegicus); test: (§1) Downregulation of P-selectin expression in arachidonic acid-activated Sprague-Dawley rat platelets assessed as decrease in fluorescence intensity pretreated for 30 mins followed by arachidonic acid addition measured after 5 mins by phycoerythrin-anti-[…] staining-based flow cytometry
[7] = target: T1, P-selectin (Rattus norvegicus); test: as §1, with “mean” for “decrease in”, “intensity at 20 nM” for “intensity”, “cytometry (reference value: 1621)” for “cytometry”
[8] = target: T1, P-selectin (Rattus norvegicus); test: as §1, with “as” for “as decrease in”, “intensity at 200 nM” for “intensity”, “cytometry (reference value: 1621)” for “cytometry”
[9] = target: T1, P-selectin (Rattus norvegicus); test: as §1, with “as” for “as decrease in”, “intensity at 2000 nM” for “intensity”, “cytometry (reference value: 1621)” for “cytometry”
[10] = target: T2, P-selectin (Homo sapiens) (UniProt P16109); test: Binding affinity to P-selectin (unknown origin) assessed as maximal absorbance at 295.4 nanometer at 0.18 mM by UV spectroscopy
T2 sequence (whole entry): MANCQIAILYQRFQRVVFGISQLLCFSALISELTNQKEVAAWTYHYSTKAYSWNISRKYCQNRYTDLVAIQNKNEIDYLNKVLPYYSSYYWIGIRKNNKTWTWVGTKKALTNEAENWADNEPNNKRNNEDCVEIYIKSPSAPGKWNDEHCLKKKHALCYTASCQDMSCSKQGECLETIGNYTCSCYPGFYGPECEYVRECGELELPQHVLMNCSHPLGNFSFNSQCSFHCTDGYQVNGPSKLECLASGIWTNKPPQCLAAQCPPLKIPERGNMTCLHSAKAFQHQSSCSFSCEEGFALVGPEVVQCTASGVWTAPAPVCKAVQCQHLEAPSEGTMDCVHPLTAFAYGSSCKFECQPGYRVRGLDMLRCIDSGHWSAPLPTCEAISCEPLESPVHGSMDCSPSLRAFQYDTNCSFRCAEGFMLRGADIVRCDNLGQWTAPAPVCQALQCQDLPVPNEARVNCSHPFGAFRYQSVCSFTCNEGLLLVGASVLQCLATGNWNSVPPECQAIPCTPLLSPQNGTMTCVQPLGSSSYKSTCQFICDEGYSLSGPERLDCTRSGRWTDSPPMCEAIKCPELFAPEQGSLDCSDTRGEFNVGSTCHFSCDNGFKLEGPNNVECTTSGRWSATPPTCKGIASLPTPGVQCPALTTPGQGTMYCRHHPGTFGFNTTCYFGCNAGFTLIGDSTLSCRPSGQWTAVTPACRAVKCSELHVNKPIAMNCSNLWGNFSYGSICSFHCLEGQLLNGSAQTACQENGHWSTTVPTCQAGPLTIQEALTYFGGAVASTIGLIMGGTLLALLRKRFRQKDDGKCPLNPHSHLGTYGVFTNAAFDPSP

[11] = target: T2, P-selectin (Homo sapiens); test: Binding affinity to P-selectin (unknown origin) assessed as maximal absorbance at 340.8 nanometer at 0.18 mM by UV spectroscopy
[12] = target: T2, P-selectin (Homo sapiens); test: Binding affinity to P-selectin (unknown origin) assessed as maximal absorbance at 352 nanometer at 0.18 mM by UV spectroscopy
[13] = target: T2, P-selectin (Homo sapiens); test: Binding affinity to P-selectin (unknown origin) assessed as red shift at 295.4 nanometer at 0.42 mM by UV spectroscopy
[14] = target: T2, P-selectin (Homo sapiens); test: Binding affinity to P-selectin (unknown origin) assessed as hyperchromic effect at 340.8 nanometer at 0.42 mM by UV spectroscopy
[15] = target: T2, P-selectin (Homo sapiens); test: Binding affinity to P-selectin (unknown origin) assessed as bathochromic shift at 340.8 nanometer at 0.42 mM by UV spectroscopy
Rattus norvegicus [16] = test: Antithrombotic activity in po dosed Sprague-Dawley rat model of thrombosis assessed as inhibition of thrombus formation measured after 30 mins; type: functional
Rattus norvegicus [17] = species on record: Rattus norvegicus; test: Potency index, ratio of compound efficacy to aspirin efficacy for antithrombotic activity in Sprague-Dawley rat model of thrombosis; type: functional
Mus musculus [18] = test: Antithrombosis activity in ferric chloride induced ICR mouse model of thrombosis assessed as inhibition of thrombus formation at 200 nmol/kg, po measured after 15 mins; type: functional, organism-based
Mus musculus [19] = species on record: Mus musculus; test: Potency index, ratio of compound efficacy to aspirin efficacy in ferric chloride induced ICR mouse model of thrombosis; type: functional
Mus musculus [20] = test: Potency index, ratio of compound efficacy to aspirin efficacy in xylene induced ICR mouse ear edema model; type: functional
Mus musculus [21] = test: Decrease in serum TNF-alpha level in xylene induced ICR mouse ear edema model administered orally 30 mins prior to topical administration of xylene; type: functional
Mus musculus [22] = test: Decrease in serum IL8 level in xylene induced ICR mouse ear edema model at 2 nmol/kg,po pretreated for 30 mins followed by topical administration of xylene; type: functional
Mus musculus [23] = test: Decrease in serum IL8 level in xylene induced ICR mouse ear edema model administered orally 30 mins prior to topical administration of xylene; type: functional
[24] = target: T1, P-selectin (Rattus norvegicus); test: Downregulation of P-selectin expression in arachidonic acid-activated Sprague-Dawley rat platelets at 200 to 2000 nM pretreated with platelets followed by arachidonic acid addition measured after 3 mins by ELISA
[25] = target: T2, P-selectin (Homo sapiens); test: Binding affinity to P-selectin (unknown origin) assessed as red shift at 352 nanometer at 0.42 mM by UV spectroscopy

`CC(=O)Oc1ccccc1C(=O)O` was tested, and the inhibition (Mus musculus [1]) was “Active”, the Activity (Mus musculus [2]) was “Active” and the inhibition (Rattus norvegicus [3]) was “Active”.

For `O=C(O)[C@H](Cc1ccccc1)NCCc1nc(CO)cc2c1[nH]c1ccccc12`, the MEC [4] was 200 nM, the Activity (Mus musculus [5]) was “Dose-dependent effect” and the MED (Mus musculus [5]) was 20 nmol/kg. The Activity [6] was “Dose-dependent effect”, the MEC [6] was 20 nM and the Flu intensity [7] was 871. For the same compound, the Flu intensity [8] was 754, the Flu intensity [9] was 665 and the Activity [10] was 0.451. The Activity [11] was 0.355, the Activity [12] was 0.339 and the Activity [13] was 1.4 nm. It also gave an Activity [14] of 51.2%, an Activity [15] of 0.6 nm and an MED (Rattus norvegicus [16]) of 20 nmol/kg. The inhibition (Rattus norvegicus [16]) was “Dose-dependent effect”, the Ratio (Rattus norvegicus [17]) was 835 and the inhibition (Mus musculus [18]) was “Active”. For the same compound, the Ratio (Mus musculus [19]) was 1200, the Ratio (Mus musculus [20]) was 550 and the MEC (Mus musculus [21]) was 200 nmol/kg. For the same compound, the Activity (Mus musculus [22]) was “Active”, the Activity (Mus musculus [23]) was “Dose-dependent effect” and the MEC (Mus musculus [23]) was 2 nmol/kg. For the same compound, the Activity [24] was “Active” and the Activity [25] was 1.4 nm.
